Reference: patent US9809562B2, “NAT10 modulators for treating or preventing laminopathies, aging and cancer” (CAMBRIDGE ENTERPRISE LIMITED, priority 2014, dated 2017)
Structures can show the parent of a compound that is named as a salt.

What was measured:
[1] = test system: HGPS cells; test: Chromatin, nucleolar and SUN1 organization in HGPS cells (IF); type: cell-based, human; details: Remodelin 1 μM
Protocol: The following KAT and KDAC inhibitors were used in the nuclear shape rescue screen, incubating cells with the molecules for 16 hours: trichostatin A (1 μM), sodium butyrate (5 mM), tubacin (10 μM), SAHA (5 μM), curcumin (10 μM), garcinol (50 μM), anacardic acid (1 μM), MB-3 (5 μM), 4-(4-chlorophenyl)-2-(2-cyclopentylidenehydrazinyl)thiazole (Compound 2) (50 μM), 4-(4-chlorophenyl)-2-(2-cyclopentylidene-1-(prop-2-yn-1-yl)hydrazinyl)thiazole (Compound 3) (50 μM) and cyclopentylidene-[4-(4-cyanophenyl)thiazol-2-yl)hydrazine (Compound 1) (Remodelin) (10 to 50 μM). For HGPS cellular fitness assays, Remodelin was incubated at 1 μM for 1 to 10 days, renewing the medium every 3 days. For long-term senescence assay, cells were kept and passaged in medium containing 1 μM Remodelin or DMSO only for 12 population doublings. Senescence was assessed after 8 days of Remodelin treatment when cells were at Population Doubling 12, and then after several weeks of Remodelin treatment, when cells reached Population Doubling 24 using the Senescence β-Galactosidase Staining Kit #9860 from Cell Signaling. Nocodazole, colchicine and latrunculin A (Sigma-Aldrich) were used at 200 ng/ml, 1 μg/ml and 1 μM respectively. Aphidicolin (Sigma-Aldrich) was used at 5 μg/ml for 16 h. Farnesyltransferase inhibitor FTI-277 was purchased from Tocris Bioscience and used at 5 μM. […]

[2] = test system: HGPS cells; test: EdU incorporation by flow cytometry in HGPS cells; type: cell-based, human; details: 2 hours EdU
Protocol: 10 μM EdU was incubated for 2 hours when indicated. Cells were fixed in 4% paraformaldehyde (Sigma-Aldrich). EdU was fluorescently labeled using the Click-iT® EdU Flow Cytometry Assay Kit (Life Sciences). DNA was stained with […] propidium iodide (Sigma-Aldrich) in phosphate buffer solution (PBS) containing 0.1% Triton-X-100 and 0.5 mg ml^−1 DNase free RNase A (Sigma-Aldrich). Samples were processed on a FACSCalibur flow cytometer equipped with CellQuest software (Becton Dickinson). Results were analysed using FlowJo software (TreeStar).

[3] = test system: HGPS cells; test: Proliferation assay of HGPS cells (IncuCyte); type: cell-based, human; details: Remodelin 1 μM
Protocol: HGPS cells were plated at the same number in 24 well dishes. Next day, Remodelin (1 μM) or small molecule Compound 2 (1 to 10 μM), were added to the wells and plates were transferred into an IncuCyte microscope (Essen BioScience). Phase contrast pictures were acquired every 2 hours over several days. Percentage of cell confluence was calculated by the Cell Player integrated software (Essen BioScience) and analysed with GraphPad Prism® software.

[4] = test system: HGPS AG11498 cells; test: Senescence-associated β-galactosidase in HGPS cells; type: cell-based, human
Protocol: The following KAT and KDAC inhibitors were used in the nuclear shape rescue screen, incubating cells with the molecules for 16 hours: trichostatin A (1 μM), sodium butyrate (5 mM), tubacin (10 μM), SAHA (5 μM), curcumin (10 μM), garcinol (50 μM), anacardic acid (1 μM), MB-3 (5 μM), 4-(4-chlorophenyl)-2-(2-cyclopentylidenehydrazinyl)thiazole (Compound 2) (50 μM), 4-(4-chlorophenyl)-2-(2-cyclopentylidene-1-(prop-2-yn-1-yl)hydrazinyl)thiazole (Compound 3) (50 μM) and cyclopentylidene-[4-(4-cyanophenyl)thiazol-2-yl)hydrazine (Compound 1) (Remodelin) (10 to 50 μM). For HGPS cellular fitness assays, Remodelin was incubated at 1 μM for 1 to 10 days, renewing the medium every 3 days. For long-term senescence assay, cells were kept and passaged in medium containing 1 μM Remodelin or DMSO only for 12 population doublings. Senescence was assessed after 8 days of Remodelin treatment when cells were at Population Doubling 12, and then after several weeks of Remodelin treatment, when cells reached Population Doubling 24 using the Senescence β-Galactosidase Staining Kit #9860 from Cell Signaling. Nocodazole, colchicine and latrunculin A (Sigma-Aldrich) were used at 200 ng/ml, 1 μg/ml and 1 μM respectively. Aphidicolin (Sigma-Aldrich) was used at 5 μg/ml for 16 h. Farnesyltransferase inhibitor FTI-277 was purchased from Tocris Bioscience and used at 5 μM. ATMi (KU55933) and ATRi (ATR-45) were obtained from Tocris Bioscience and from the Ohio State University respectively and used at 10 μM and 500 nM. Pifithrin alpha (Sigma-Aldrich) was used at 10 μM.

[5] = test system: siLMNA cells; test: Micrococcal nuclease digestion sensitivity assay and nuclear area (chromatin compaction); type: cell-based, human
Protocol: CellProfiler software was used to quantify nuclear circularity and nuclear area from DAPI staining pictures, using the “object size shape” measurement. The AreaShape measurement allowed the calculation of the Form Factor index ([…]) corresponding to circularity (a Form Factor of 1 reflecting a perfect circle), as well as the calculation of nuclear Area.
1×10^6 cells were trypsinized, harvested, and washed once with 1 ml of 1×RSB buffer (10 mM Tris, pH 7.6, 15 mM NaCl, and 1.5 mM MgCl2). After centrifugation ([…]), the cell pellet was resuspended in 1 ml of 1×RSB buffer with 1% Triton-X 100 and homogenized by five strokes with a loose-fitting glass pestle to release nuclei. Nuclei were collected by centrifugation (13,000×g) and washed twice with 1 ml of buffer A (15 mM Tris, pH 7.5, 15 mM NaCl, 60 mM KCl, 0.34 M sucrose, 0.5 mM spermidine, 0.15 mM spermine, 0.25 mM PMSF, and 0.1% β-mercaptoethanol). Nuclei were resuspended in Buffer A and aliquoted into 100 μl aliquots. […] DNA was purified using the Qiagen PCR purification kit and 1500 ng of DNA was analysed on a 1.5% agarose gel. Digestion profiles were analysed using ImageJ and values were adjusted relative to the global intensity of each lane to compensate for DNA loading variations.

[6] = test system: tissues from Lmna^G609G/G609G mice; test: γH2AX relative to total H2AX in mouse tissues (western blot); type: in vivo
Protocol: Tissues from wild type mice or Lmna^G609G/G609G mice treated with Compound 2 were harvested and proteins were extracted and loaded on a western blot which is shown in FIG. 26. Lmna^G609G/G609G mice indeed show progerin expression (readily detectable mainly in the Lung tissues), confirming their genotype. DNA damage was assessed by the DNA double strand break marker γH2AX that was quantified using a Licor Odyssey Imaging system.

[7] = test system: HGPS fibroblasts; test: Microarray gene expression, HGPS fibroblasts; type: cell-based, human
Protocol: Normal fibroblasts or HGPS fibroblasts were kept in culture for 12 population doublings with chronic treatment of 1 μM Compound 2 (top panels of FIG. 29) or transfected with siRNA against NAT10 for 3 days (bottom panels of FIG. 29). RNA was extracted and global gene expression was analysed by microarray. Volcano plots show a very high specificity of Compound 2 towards gene expression regulation of HGPS cells, with about 1000 genes affected more than 2 fold, whereas only 24 genes were affected in normal fibroblasts.

For `N#Cc1ccc(-c2csc(NN=C3CCCC3)n2)cc1` [Compound 1, 4-(4-Cyanophenyl)-2-(2-cyclopentylidenehydrazinyl)thiazole], the “SUN1 accumulation at the nuclear envelope” value [1] was “decreased SUN1 accumulation at the nuclear envelope”, the “chromatin and nucleolar organization (H3K9me3 and NAT10 staining)” value [1] was “improved chromatin and nucleolar organization” and the “DNA replication (EdU incorporation)” value [2] was “improved DNA replication”. The “cell proliferation of HGPS cells” value [3] was “enhanced cell proliferation capacity”, the “long-term senescence of HGPS cells” value ([4]; 1 μM Remodelin, several weeks, 12 cell divisions (PDL 24)) was “prevented HGPS cell senescence even after several weeks of treatment” and the “senescence of HGPS cells (β-galactosidase positive cells)” value ([4]; HGPS AG11498, Remodelin 1 μM, Pifithrin alpha 10 μM) was “decreased senescence”.

With `Clc1ccc(-c2csc(NN=C3CCCC3)n2)cc1` [Compound 2, 4-(4-Chlorophenyl)-2-(2-cyclopentylidenehydrazinyl)thiazole Hydrochloride Salt] the “global chromatin compaction (MNase sensitivity)” value [5] was “decreased MNase sensitivity”, the nuclear area [5] was “reduced nuclear area” and the “DNA damage (γH2AX relative to total H2AX)” value ([6]; heart and lung, treated vs untreated Lmna^G609G/G609G mice) was “clear decrease of DNA damage”. The “DNA damage (γH2AX relative to total H2AX)” value ([6]; liver extracts) was “No effect”, the “number of genes affected more than 2 fold” value ([7]; HGPS fibroblasts, 1 μM, 12 population doublings) was “about 1000 genes” and the “genes misregulated in HGPS that are rescued” value ([7]; HGPS vs normal fibroblasts, Venn diagrams) was “about half of the genes that are misregulated in HGPS compared to normal fibroblasts are rescued”.
